Measured values taken from US6529835B1, “High throughput methods, systems and apparatus for performing cell based screening assays” (Caliper Technologies Corp., priority 1998, dated 2003).

Assays:
[1] = system: P2Y receptor on THP-1 cells; experiment: Dual label cell function assay, calcium response of THP-1 cells to UTP (Fluo-3 / Syto-17, on-chip); assay type: cell-based
Protocol: (§1) Cell Culture—Cells (CHO or THP-1) were obtained from the ATCC. THP-1 cells were cultured in RPMI 1640 media containing 10% fetal bovine serum (FBS), sodium pyruvate (1 mM), L-glutamine (2 mM), Penicillin-G/Streptomycin (100 u/ml, 100 μ/ml), beta-mercaptoethanol (50 μM), HEPES buffer, pH 7.4 (10 mM). CHO cells were cultured in Ham's F12 media containing 10% FBS, L-glutamine (2 mM), and Penicillin-G/Streptomycin (100 u/ml/100 μg/ml). The cells were maintained by splitting every 3-4 days.
(§2) Dye Loading of Cells—The cells were loaded with Fluo-3-AM dye (Molecular Probes) using a 4 μM solution of the dye in Hank's Balanced Salt Solution (HBSS) containing calcium and magnesium but lacking phenol red. Added to the HBSS were 1% FBS, 2.5 mM probenecid, 30 mM HEPES, pH 7.0, and 0.05% pluronic acid. The cells were incubated in the dye containing solution at approximately, 5-9×10^6 cells/5 ml for 50 minutes in a CO2 incubator at 37° C. […]
(§3) The fluorescence of the cells was measured using two PMT's on a Nikon inverted microscope and fluorescein/texas red filter sets (Fluo-3: Ex. max=506, Em. max=526 & Syto-17: Ex. max=621, Em. max=634 nm) for two color analysis. Using the combination of Fluo-3 and Syto-17 dyes, there was no interference by fluorescence quenching of one dye's emission by the other dye. […] Syto-17 was therefore an indicator of cell density in the reading area. […]

CHO cells = experiment: Dual label cell function assay, intracellular calcium in CHO cells (Fluo-3 / Syto-17, on-chip); assay type: cell-based; settings: ionomycin 0, 1 μM, 3 μM, 10 μM and 30 μM, FIGS. 11A-11F
Protocol: as §1, §2, §3

Compound	time to peak of calcium response after sample introduction ([1]; 10 μM UTP, FIG. 15) [s]	ratio of the Fluo-3 and Syto-17 fluorescence (the slope determined by linear regression) ([1]; 30 μM UTP versus no UTP, FIG. 13)	slope of the best fit line for the scatter plots (ratio of calcium modulated fluorescence to cell number; measure of intracellular calcium concentration) (CHO cells)
O=c1ccn([C@@H]2O[C@H](COP(=O)(O)OP(=O)(O)OP(=O)(O)O)[C@@H](O)[C@H]2O)c(=O)[nH]1 [UTP]	≤ 5	changes with treatment with UTP	
C[C@H](CCC(=O)O)C[C@H](C)C[C@H](C)C(=O)/C=C(\O)[C@H](C)C[C@H](C)C/C=C/[C@@H](C)[C@@H](O)[C@@H](C)[C@@H](O)C[C@@H]1CC[C@@](C)([C@H]2CC[C@@](C)([C@@H](C)O)O2)O1 [ionomycin]			increases with increasing ionomycin concentration
